Data as given in patent US8173428B2, “LNA oligonucleotides and the treatment of cancer” (Santaris Pharma A/S, priority 2004, dated 2012).
Like-named read-outs stand apart in the source and are kept apart here. Oligonucleotides are written 5' to 3', each unit as a sugar letter and its base; * is a phosphorothioate linkage, no mark a phosphodiester; rarer units and linkages stand in square brackets, end groups in braces. Plain capitals give the bases only. l = locked nucleic acid (LNA); [5mC] = 5-methylcytosine; d = 2'-deoxy (DNA)

Columns and labels:
human Survivin RNA = assay: Survivin mRNA knockdown in transfected 15PC3 cells by real-time PCR; type: cell-based
Method: Cell culturing and transfections: 15PC3 cells were seeded in 12-well plates and grown for two days at 37° C. (5% CO2) in DMEM supplemented with 10% FBS, Glutamax I and Gentamicin. When the cells were 60-70% confluent, they were transfected in duplicates with different concentrations of oligonucleotides (0.2-25 nM) using Lipofectamine 2000 (10 μg/ml). Transfections were carried out essentially as described by Dean et al. (1994, JBC 269:16416-16424). In short, cells were incubated for 10 min. with Lipofectamine in OptiMEM followed by addition of oligonucleotide to a total volume of 0.5 ml transfection mix per well. […] Cells were then harvested for protein and RNA analysis.
Total RNA was isolated using RNeasy mini kit (Qiagen). Cells were washed with PBS, and Cell Lysis Buffer (RTL, Qiagen) supplemented with 1% mercaptoethanol was added directly to the wells. After a few minutes, the samples were processed according to manufacturer's instructions.
First strand synthesis was performed using OmniScript Reverse Transcriptase kit according to the manufacturer's instructions (Qiagen). For each sample, 0.5 μg total RNA was adjusted to 12 μl and mixed with 0.2 μl poly (dT)12-18 (0.5 μg/μl) (Life Technologies), 2 μl dNTP mix (5 mM each), 2 μl 10× RT buffer, 0.5 μl RNAguard™ RNase Inhibitor (33 units/ml, Amersham) and 1 μl OmniScript Reverse Transcriptase followed by incubation at 37° C. for 60 min. and heat inactivation at 93° C. for 5 min.
To determine the relative Survivin mRNA level in oligonucleotide treated and untreated cells, the generated cDNA was used in quantitative PCR analysis using an iCycler from BioRad. The cDNA was diluted 5-fold and 8 μl was mixed with 52 μl Taqman probe master mix containing 30 μl Platinum Quantitative PCR SuperMix UDG 2×PCR master mix (Invitrogen), 3 μl 20× Taqman probe and primer mix (forward primer: 5′[…] (SEQ ID NO:29), final 0.9 μM. Reverse primer: 5′[…] (SEQ ID NO:30), final 0.6 μM and taqman probe: FAM-[…]-TAMRA (SEQ ID NO:31), final 0.1 μM) and 19 μl H2O. The 60 μl were dispersed in two wells (96 well plates) with […] in each well. For human Bcl-2 the PCR primers were: […]
The primers and probe were obtained from […] (France). To normalize any variance in sample preparation, the endogenous GAPDH mRNA was quantified using a pre-developed Taqman assay reagent from Applied Biosystems (4310884E) according to manufacturer's Instructions. Two-fold dilutions of cDNA, synthesised from untreated 15PC3 cells (expressing both Survivin and GAPDH), was used to prepare standard curves for the assays. The PCR program was as follows: 50° C. for 2 min., 95° C. for 10 min. followed by 40 cycles of 95° C. 15 sec., 60° C. 1 min. Relative quantities of Survivin mRNA were determined from the calculated threshold cycle using the iCycler IQ Real Time Detection System software.
In accordance with the present invention, a series of oligonucleotides were designed to target different regions of the human Survivin RNA, using published sequences (GenBank accession number NM_001168).
LNA oligonucleotides were evaluated for their potential to knockdown Survivin mRNA in 15PC3 cells. The data are presented as percentage down-regulation relative to mock transfected cells. Transcript steady state was monitored by Real-time PCR and normalised to the GAPDH transcript steady state, see Table 3. Note that all LNA C are 5-methyl-Cytosine.

15PC3 cells [1] = assay: Caspase 3/7 activity (apoptosis) in transfected 15PC3 cells; type: cell-based, human; conditions: for Apoptosis At 5 nM, 24 hours: 24 hours (Table 7, FIG. 3); for Max Apoptosis: 25 nM, 48 hours (Table 7)
Method: (§1) Culturing of cells: 15PC3 was cultured in DMEM (Sigma) containing 10% fetal bovine serum, Glutamax I and gentamicin at 37° C., 95% humidity and 5% CO2. The cervical carcinoma cell line HeLa were cultured in MEM (Sigma) containing 10% fetal bovine serum, Glutamax I and gentamicin at 37° C., 95% humidity and 5% CO2. When reaching 60-70% confluency, the cells were transfected using Lipofectamine 2000 (5 μg/ml).
15PC3 cells were seeded to a density of 10000 cells per well in white 96-well plates (Nunc 136101) in DMEM the day prior to transfection. The next day cells were washed once in prewarmed OptiMEM followed by addition of 72 μl OptiMEM containing 5 μg/ml Lipofectamine-2000 (In vitrogen). Cells were incubated for 7 min before adding 18 μl oligonucleotides diluted in OptiMEM. The final oligonucleotide concentration ranged from 0.2 nM to 100 nM. After 4 hours of treatment, cells were washed in OptiMEM and 100 μl DMEM containing serum was added. Following oligonucleotide treatment, cells were allowed to recover for the period indicated before they were removed from the CO2 incubator and equilibrated to room temperature for 15 min. 100 μl of the highly sensitive Caspase 3/7-Glo™ Reagent (Promega) was added directly to the cells, and the plates were incubated for 20 min. Luminescence (luciferase activity) was recorded in a Luminoskan Ascent instrument (Thermo Labsystems). The luciferase activity is measured as Relative Light Units per seconds (RLU/s). The data was analysed using the Ascent software 2.4.2. Graphs of fold induction relative to mock were generated using MS Excel.
Staurosporine, Camptothecine or Taxol induced cells served as positive controls (see FIGS. 3, 6A and Table 4 plus Example 21).

15PC3 cells [2] = assay: MTS assay of proliferating viable cells; type: cell-based, human
Method: as §1
Cells were seeded to a density of 10000 cells per well in clear 96 well plate (Scientific Orange no. 1472030100) in DMEM the day prior to transfection. The next day cells were washed once in prewarmed OptiMEM followed by addition of 72 μl OptiMEM containing 5 μg/ml Lipofectamine 2000 (Invitrogen). Cells were incubated for 7 min before adding 18 μl oligonucleotides diluted in OptiMEM. […] After 4 hours of treatment, cells were washed in OptiMEM and 100 μl serum containing DMEM was added. Following oligonucleotide treatment cells were allowed to recover for the period indicated, viable cells were measured by adding 20 μl of the tetrazolium compound [3-(4,5-[…])-5-(3-carboxymethoxyphenyl)-2-(4-sulfophenyl)-2H-tetrazolium, inner salt; MTS] and an electron coupling reagent (phenazine ethosulfate, PES; CellTiter 96® AQueous One Solution Cell Proliferation Assay, Promega). Viable cells were measured at 490 nm and 650 nm in a Powerwave (Biotek Instruments).
The inhibition of growth rate ΔOD (490-650 nm)/h was plotted against the oligonucleotide concentration relative to mock, which was set to 100%. The maximum inhibition of proliferation observed in the MTS assay was 70% (minimum 30%). (Table 5 and FIG. 5)

15PC3 cells [3] = assay: Cell cycle analysis by propidium iodide staining and FACS; type: cell-based, human; conditions: 10 nM, 24 hours, 15PC3 cells
Method: Cell culturing: Human prostate cancer 15PC3 cells (kindly provided by Dr. F Baas, Neurozintuigen Laboratory, AMC, The Netherlands) were seeded to a density of 8×10E5 cells in T75-flasks and grown for two days at 37° C. and 5% CO2 in DMEM supplemented with 10% FBS, Glutamax and Gentamicin. Two days following seeding cells were transfected with 2-10 nM SEQ ID NO. 2 using Lipofectamine at a final conc. of 7.5 μg/ml. Transfections were carried out as described by Dean et al. (1994, JBC 269 p. 16416 16424). In short cells were incubated with Lipofectamine diluted in OptiMEM for 7-10 min followed by the addition of the oligonucleotide to total volume of 8.7 ml per T75 flask. 4 hours following transfection cells were washed in OptiMEM and grown at 37° C. for 12-96 hours in complete growth medium with or without the addition of 2-100 nM Taxol (Sigma Aldrich). Cells were harvested for either mRNA extraction, Caspase 3/7 assay or fixed, stained with PI and analysed by FACS analysis.
Cell culturing and transfections: As in example 13.
Fixation and PI staining: Cells were washed in PBS, harvested and resuspended in 100 μl in ice cold PBS. 900 μl ice cold 70% […] and fixed cells were kept at −20 until use. […]
SEQ ID NO. 2 transfected 15PC3 cells were exposed to different concentrations of Taxol and analysed by Propidium Iodide staining and subsequent FACS analysis (FIG. 7a-c). […]

HeLa cells = assay: Annexin V-FITC/PI flow cytometry analysis; type: cell-based, human; conditions: 5 nM or 25 nM
Method: as §1
0.4×10^6 HeLa cells were seeded in T25 flasks one day prior to transfection. On the day of transfection, the cells were washed once in 37° C. OptiMEM followed by addition of 2.8 ml OptiMEM containing 5 μg/ml Lipofectamine-2000 (In vitrogen). Cells were incubated for 7 min before adding 700 μl oligonucleotides diluted in OptiMEM to a final concentration of 5 nM or 25 nM, Mock transfected cells served as control. After 4 hours of treatment cells were washed in OptiMEM and 3 ml culture medium was added. Following oligonucleotide treatment cells were allowed to recover for 48 hours before they were harvested by scraping and washed twice in PBS. 0.2×10^6 cells were incubated with 5 μl Annexin V-FITC and 10 μl propidium iodide (PI-10 mg/ml) and incubated for 15 min at room temperature in the dark. […] Moreover, TRAIL (Apo2L) induced HeLA cells (0.5 μg/ml) were used as positive control. (See FIG. 4)

complementary RNA = assay: Measurement of melting temperature (Tm) of the duplex; type: binding; conditions: 3 μM, 10 mM sodium phosphate/100 mM NaCl/0.1 nM EDTA, pH 7.0
Method: Measurement of melting temperature (Tm) of the compounds: A 3 μM solution of SEQ ID NO. 2 in 10 mM sodium phosphate/100 mM NaCl/[…], pH 7.0 was mixed with its complement DNA/RNA 3 μM in 10 mM sodium phosphate/100 mM NaCl/[…], pH 7.0 at 90° C. for a minute and allowed to cool to room temperature. The Tm of the duplex was then determined by increasing the temperature 1° C./min. from 25 to 95° C. The Tm of SEQ ID NO.

[4] = Survivin mRNA down-regulation relative to mock, normalised to GAPDH, standard deviation in brackets, at least three experiments
[5] = 48 hours (Table 7, FIG. 5), read-out: Proliferation IC50 (48 hours)

5′-Gs^MeCsAsGstsgsgsastsgsasasGs^MeCs^MeCsA-3′ (lG*l[5mC]*lA*lG*dT*dG*dG*dA*dT*dG*dA*dA*lG*l[5mC]*l[5mC]*lA) [SEQ ID NO. 23, reference compound]
IC50 (human Survivin RNA; [4]): 2.5 nM
IC75 [nM] (human Survivin RNA; [4]): 6.2 (1.6) nM
Apoptosis At 5 nM, 24 hours (15PC3 cells [1]; 5 nM): 2-fold
Max Apoptosis (15PC3 cells [1]): 5.5-fold

^MeCsTscscscsasgscsgstsgscsgs^MeCs^MeCsa (l[5mC]*lT*dC*dC*dC*dA*dG*dC*dG*dT*dG*dC*dG*l[5mC]*l[5mC]*dA) [SEQ ID NO. 26, reference compound]
Survivin mRNA expression (human Survivin RNA; 10 nM, 24 hours, single agent or combined with control oligonucleotides): does not have any effect on Survivin

5′-Gs^MeCsAs^MeCsasgststsgsasasas^MeCsAsTsc-3′ (lG*l[5mC]*lA*l[5mC]*dA*dG*dT*dT*dG*dA*dA*dA*l[5mC]*lA*lT*dC) [SEQ ID NO. 22]
Apoptosis At 5 nM, 24 hours (15PC3 cells [1]; 5 nM): No activity
Max Apoptosis (15PC3 cells [1]): 2.5-fold
IC50 (15PC3 cells [2]; [5]): 25 nM

^MeCsGs^MeCsAsgsaststsasgsasasAs^MeCs^MeCst (l[5mC]*lG*l[5mC]*lA*dG*dA*dT*dT*dA*dG*dA*dA*lA*l[5mC]*l[5mC]*dT) [SEQ ID NO. 24, negative control oligonucleotide, design 4-8-3-1]
Effect on the cell cycle (15PC3 cells [3]): no effect on the cell cycle
Maximum Induction Fold-induction of apoptosis, Caspase 3/7 assay (15PC3 cells [1]; 100 nM, 48 hours, 15PC3 cells): 3.1 x (100 nM, 48 hours)
Fold induction of apoptosis, Caspase 3/7 assay (15PC3 cells [1]; 24 hours, 5 nM, 15PC3 cells, relative to mock): 1.5 x
Induction of early and late apoptosis (Annexin V-FITC/PI staining) (HeLa cells): do not induce apoptosis
Proliferation (relative number of viable cells) (15PC3 cells [2]; 0.2, 1, 5, 25 and 100 nM, 13-72 hours after transfection, 15PC3 cells): does not
IC50 (15PC3 cells [2]; 48 hours, transfected 15PC3 cells (Table 5), read-out: Inhibition of proliferation, MTS assay IC50 (48 hours)): 86.9 nM

TsGsTsGscstsaststscstsgstsgsAsAsTsT (lT*lG*lT*lG*dC*dT*dA*dT*dT*dC*dT*dG*dT*dG*lA*lA*lT*lT) [SEQ ID NO. 21]
Tm (° C.) complementary RNA (complementary RNA): 62.7 °C
Apoptosis At 5 nM, 24 hours (15PC3 cells [1]; 5 nM): No activity
Max Apoptosis (15PC3 cells [1]): 2.5-fold
IC50 (15PC3 cells [2]; [5]): 25 nM
